Here are results for 9 molecules from US11548884B2, “Cyclic amidine compounds for the treatment of autoimmune disease” (Hoffmann-La Roche Inc., priority 2018, dated 2023).

Each structure is given as a SMILES string.

The target of this assay is T1, human TLR8 (Homo sapiens, UniProt Q9NR97).
T1 sequence (Q9NR97 27-1041): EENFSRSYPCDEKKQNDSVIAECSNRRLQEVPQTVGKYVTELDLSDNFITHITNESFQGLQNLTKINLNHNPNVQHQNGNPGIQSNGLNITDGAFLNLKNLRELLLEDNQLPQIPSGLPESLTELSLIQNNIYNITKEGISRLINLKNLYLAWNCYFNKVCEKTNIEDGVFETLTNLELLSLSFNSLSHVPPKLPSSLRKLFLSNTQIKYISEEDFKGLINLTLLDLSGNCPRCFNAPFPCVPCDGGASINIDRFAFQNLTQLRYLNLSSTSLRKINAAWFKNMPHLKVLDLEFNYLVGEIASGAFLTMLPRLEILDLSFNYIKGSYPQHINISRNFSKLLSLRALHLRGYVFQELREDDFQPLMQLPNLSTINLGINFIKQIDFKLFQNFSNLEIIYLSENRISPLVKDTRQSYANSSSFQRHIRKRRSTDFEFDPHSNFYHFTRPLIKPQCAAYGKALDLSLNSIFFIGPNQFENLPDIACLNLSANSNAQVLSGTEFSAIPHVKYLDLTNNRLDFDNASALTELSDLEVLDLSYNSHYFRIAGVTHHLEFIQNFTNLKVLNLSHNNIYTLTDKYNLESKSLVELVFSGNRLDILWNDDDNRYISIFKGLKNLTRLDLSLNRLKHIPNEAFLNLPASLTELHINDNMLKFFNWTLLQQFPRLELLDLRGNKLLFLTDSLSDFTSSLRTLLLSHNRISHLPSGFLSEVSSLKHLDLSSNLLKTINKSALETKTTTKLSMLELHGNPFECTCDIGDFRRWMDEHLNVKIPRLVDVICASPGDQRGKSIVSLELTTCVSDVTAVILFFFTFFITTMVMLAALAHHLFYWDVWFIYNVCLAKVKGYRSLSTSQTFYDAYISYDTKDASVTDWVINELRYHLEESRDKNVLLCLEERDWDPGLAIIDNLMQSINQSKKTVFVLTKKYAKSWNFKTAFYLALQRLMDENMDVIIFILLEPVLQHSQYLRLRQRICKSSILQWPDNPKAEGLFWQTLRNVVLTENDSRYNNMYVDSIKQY
Nature of the assay: HEK293-Blue-hTLR-8 cells assay (SEAP reporter, R848 stimulation). Particulars: HEK293-Blue-hTLR8 cells, R848 ligand, 20 h incubation. The assay is classed as cell-based. As for the experimental part:
The following tests were carried out in order to determine the activity of the compounds of formula (I) in HEK293-Blue-hTLR-7/8/9 cells assay.
HEK293-Blue-hTLR-8 Cells Assay:
A stable HEK293-Blue-hTLR-8 cell line was purchased from InvivoGen (Cat. #: hkb-htlr8, San Diego, Calif., USA). These cells were originally designed for studying the stimulation of human TLR8 by monitoring the activation of NF-κB. A SEAP (secreted embryonic alkaline phosphatase) reporter gene was placed under the control of the IFN-β minimal promoter fused to five NF-κB and AP-1-binding sites. The SEAP was induced by activating NF-κB and AP-1 via stimulating HEK-Blue hTLR8 cells with TLR8 ligands. Therefore the reporter expression was declined by TLR8 antagonist under the stimulation of a ligand, such as R848, for incubation of 20 h. The cell culture supernatant SEAP reporter activity was determined using QUANTI-Blue™ kit (Cat. #: rep-qb1, Invivogen, San Diego, Calif., USA) at a wavelength of 640 nm, a detection medium that turns purple or blue in the presence of alkaline phosphatase.
HEK293-Blue-hTLR8 cells were incubated at a density of 250,000˜450,000 cells/mL in a volume of 170 μL in a 96-well plate in Dulbecco's Modified Eagle's medium (DMEM) containing 4.5 g/L glucose, 50 U/mL penicillin, […], […], 2 mM L-glutamine, 10% (v/v) heat-inactivated fetal bovine serum with addition of 20 μL test compound in a serial dilution in the presence of final DMSO at 1% and 10 μL of 60 uM R848 in above DMEM, perform incubation under 37° C. in a CO2 incubator for 20 h. Then 20 μL of the supernatant from each well was incubated with 180 μL Quanti-blue substrate solution at 37° C. for 2 h and the absorbance was read at 620˜655 nm using a spectrophotometer. The signalling pathway that TLR8 activation leads to downstream NF-κB activation has been widely accepted, and therefore similar reporter assay was modified for evaluating TLR8 antagonist.
Regarding `C[C@@H]1CN(c2ccc(C#N)c3ncccc23)C[C@H](C2=Nc3cccc(N4CCNCC4)c3CN2)O1` [Example 6, 5-[(2R,6R)-2-methyl-6-(5-piperazin-1-yl-3,4-dihydroquinazolin-2-yl)morpholin-4-yl]quinoline-8-carbonitrile], the IC50 amounted to 8 nM. For `C[C@@H]1CN(c2ccc(C#N)c3ncccc23)C[C@H](C2=Nc3ccc(N4CCNCC4)cc3CN2)O1` [Example 7, 5-[(2R,6R)-2-methyl-6-(6-piperazin-1-yl-3,4-dihydroquinazolin-2-yl)morpholin-4-yl]quinoline-8-carbonitrile] the value was under 3 nM. For `C[C@@H]1CN(c2ccc(C#N)c3ncccc23)C[C@H](C2=Nc3cc(N4CCNCC4)ccc3CN2)O1` [Example 8, 5-[(2R,6R)-2-methyl-6-(7-piperazin-1-yl-3,4-dihydroquinazolin-2-yl)morpholin-4-yl]quinoline-8-carbonitrile] the value was 4 nM; for `C[C@@H]1CN(c2ccc(C#N)c3ncccc23)C[C@H](C2=Nc3c(cccc3N3CCNCC3)CN2)O1` [Example 9, 5-[(2R,6R)-2-methyl-6-(8-piperazin-1-yl-3,4-dihydroquinazolin-2-yl)morpholin-4-yl]quinoline-8-carbonitrile], 46 nM. `C[C@@H]1CN(c2ccc(C#N)c3ncccc23)C[C@H](C2=Nc3cccc(N4CCN(C)CC4)c3CN2)O1` [Example 12, 5-[(2R,6R)-2-methyl-6-[5-(4-methylpiperazin-1-yl)-3,4-dihydroquinazolin-2-yl]morpholin-4-yl]quinoline-8-carbonitrile]: the IC50 stood at 14 nM. For `C[C@@H]1CN(c2ccc(C#N)c3ncccc23)C[C@H](C2=Nc3cccc(N4CCC5(CCNC5)C4)c3CN2)O1` (stereo partly drawn) [Example 13, 5-[(2R,6R)-2-[5-(2,7-diazaspiro[4.4]nonan-2-yl)-3,4-dihydroquinazolin-2-yl]-6-methyl-morpholin-4-yl]quinoline-8-carbonitrile] the value was 87 nM.

In the case of `C[C@@H]1CN(c2ccc(C#N)c3ncccc23)C[C@H](C2=Nc3cccc(C4=CCNCC4)c3CCN2)O1` [Example 16, 5-[(2R,6R)-2-methyl-6-[6-(1,2,3,6-tetrahydropyridin-4-yl)-4,5-dihydro-3H-1,3-benzodiazepin-2-yl]morpholin-4-yl]quinoline-8-carbonitrile], the IC50 was 191 nM. For `C[C@@H]1CN(c2ccc(C#N)c3ncccc23)C[C@H](C2=Nc3ccc(N4CCNCC4)cc3CCN2)O1` [Example 17, 5-[(2R,6R)-2-methyl-6-(7-piperazin-1-yl-4,5-dihydro-3H-1,3-benzodiazepin-2-yl)morpholin-4-yl]quinoline-8-carbonitrile] the value was 148 nM; for `C[C@@H]1CN(c2ccc(C#N)c3ncccc23)C[C@H](C2=Nc3cccc(C4CCNCC4)c3CN2)O1` [Example 18, 5-[(2R,6R)-2-methyl-6-[5-(4-piperidyl)-3,4-dihydroquinazolin-2-yl]morpholin-4-yl]quinoline-8-carbonitrile], 71 nM.

As usually defined, the IC50 is the concentration needed to halve the response being measured. A high value points to lower potency.
